Where two headings read alike, the source gives them in different places.
Assays:
[1] = system: cabbage moth (Plutella maculipennis); assay: feed damage on sprayed potted mustard seedlings bearing eggs of the cabbage moth (Plutella maculipennis); type: in vivo; conditions: vs untreated plants, 7 days
From the text: The compounds to be used according to the invention were used as aqueous solutions of the salts or as aqueous emulsions of the bases formulated as emulsion concentrates at the desired concentration. The same procedure was followed for the comparison agents trans-2-phenylcyclopropyl aminosulfate and 1-isonicotinyl-2-isopropyl hydrazine phosphate.
After the treatment the pots were set up in aerated glass cylinders for seven days.
The criterion for evaluation of the action was feed damage on the treated plants in comparison with the feed damage on untreated plants.

monoamino-oxidase = conditions: generally known; cited from earlier work
[2] = system: Egyptian cotton moth eggs; assay: prevention of hatching of Egyptian cotton moth eggs (immersion, evaluation four days after treatment); type: in vivo, Spodoptera littoratis (Egyptian cotton moth); conditions: 96 h
Experimental: The compounds to be used according to the invention were aqueous solutions of the salts or aqueous emulsions of the baes formulated as emulsion concentrates at the desired concentration. The same procedure was followed with the comparison agents trans-2-phenylcyclopropyl aminosulfate and 1-isonicotinyl-2-isopropyl hydrazine phosphate; in the case of isonicotinic acid-2-[2-(benzylcarbamoyl)-ethyl]hydrazide, the compound was dissolved in acetone and diluted with water to the desired concentration.
The criterion for evaluation of the action was the percentual prevention of batching in comparison with untreated eggs.

cabbage moth eggs = assay: prevention of hatching of cabbage moth eggs (immersion, evaluation four days after treatment); type: in vivo; conditions: Mamestra brassicae, 96 h; for inhibition at 1 % / inhibition at 0.1 %: read-out: prevention of hatching
Experimental: The compounds to be used according to the invention were used as aqueous solutions of the salts or as aqueous emulsions of the bases formulated as emulsion concentrates at the desired concentration. The same procedure was followed with the comparison agents trans-2-phenylcyclopropyl aminosulfate and 1-isonicotinyl-2-isopropyl hydrazine phosphate; in the case of isonicotinic acid-2-[2-(benzylcarbamoyl)-ethyl]-hydrazide, the compound was dissolved in acetone and diluted to the desired concentration with water.
The criterion for the evaluation of action was the percentual prevention of hatching in comparison with untreated eggs.

[3] = acute oral toxicity, mouse; conditions: in vivo, mouse p.o.
[4] = read-out: prevention of batching
[5] = substance concentration 1.0 (head "(5)"), vs untreated eggs, 4 days, read-out: prevention of hatching
[6] = substance concentration 1.0%, vs untreated eggs, 4 days
[7] = substance concentration 0.1 (head "(5)"), vs untreated eggs, 4 days, read-out: prevention of hatching
[8] = substance concentration 0.04 (head "(5)"), vs untreated eggs, 4 days, read-out: prevention of hatching
[9] = substance concentration 0.1%, vs untreated eggs, 4 days

For N[C@@H]1C[C@H]1c1ccccc1.O=S(=O)(O)O (relative stereo) [trans-2-Phenylcyclopropyl aminosulfate, trans-2-phenylcyclopropylamine sulfate, reference compound], which feed damage ([1]; substance concentration 0.1%) is on record?
The feed damage was 100%.

And the inhibition of monoamino-oxidase (monoamino-oxidase)?
Its inhibition of monoamino-oxidase is “inhibitors of monoamino-oxidase”.

What about the inhibition at 1 % [2, 4] of the same compound?
Its inhibition at 1 % is 0%.

What about the inhibition at 1 % (cabbage moth eggs) of the same compound?
Its inhibition at 1 % is 0%.

What does the source list for CC(C)NNC(=O)c1ccncc1 [1-isonicotinyl-2-isopropylhydrazine phosphate, reference compound]?
feed damage ([1]; substance concentration 0.1%): 100%; inhibition of monoamino-oxidase (monoamino-oxidase): inhibitors of monoamino-oxidase; inhibition at 1 % [2, 5]: 0%; inhibition at 1 % (cabbage moth eggs; [6]): 0%

With C#CCN(C)Cc1ccc(Cl)cc1 [Compound 1, N-(4-chlorobenzyl)-N-methyl-2-propinylamine] as the compound, how does the feed damage ([1]; substance concentration 0.05%) read?
The feed damage was 0%.

What about the inhibition at 0.02 % ([2]; substance concentration 0.02 (head "(5)"), vs untreated eggs, 4 days) of the same compound?
Its inhibition at 0.02 % is 100%.

What about the inhibition at 0.06 % (cabbage moth eggs; substance concentration 0.06%, vs untreated eggs, 4 days) of the same compound?
The inhibition at 0.06 % was 100%.

For C#CCN(C)Cc1ccc(Cl)cc1 [Compound 2, 4-Chlorobenzyl-methyl-2-propinyl ammonium chloride], which inhibition at 0.1 % [2, 7] is on record?
The inhibition at 0.1 % was 100%.

With C#CCN(C)Cc1ccccc1 [Compound 3, N-Benzyl-N-methyl-2-propinylamine] as the compound, how does the LD50 [3] read?
The LD50 was 700 mg/kg.

What about the feed damage ([1]; substance concentration 0.05%) of the same compound?
The feed damage was 0%.

And the inhibition of monoamino-oxidase (monoamino-oxidase)?
Its inhibition of monoamino-oxidase is “inhibitors of monoamino-oxidase”.

What about the inhibition at 0.04 % [2, 4] of the same compound?
Its inhibition at 0.04 % is 100%.

What about the inhibition at 0.1 % (cabbage moth eggs) of the same compound?
Its inhibition at 0.1 % is 100%.

Which LD50 [3] does the source give for C#CCN(C)Cc1ccccc1Cl [Compound 4, N-(2-chlorobenzyl)-N-methyl-2-propinylamine] here?
The LD50 was 305 mg/kg.

And the inhibition at 0.1 % [2, 7]?
Its inhibition at 0.1 % is 100%.

Which inhibition at 0.1 % [2, 7] does the source give for C#CCN(C)Cc1cccc(Cl)c1 [Compound 5, N-(3-chlorobenzyl)-N-methyl-2-propinylamine] here?
Its inhibition at 0.1 % is 100%.

With C#CCN(C)Cc1ccc(Cl)c(Cl)c1 [Compound 6, N-(3,4-dichlorobenzyl)-N-methyl-2-propinylamine] as the compound, how does the inhibition at 0.04 % [2, 8] read?
Its inhibition at 0.04 % is 100%.

Which inhibition at 0.04 % [2, 8] does the source give for C#CCN(C)Cc1ccc(Cl)cc1Cl [Compound 7, N-(2,4-dichlorobenzyl)-N-methyl-2-propinylamine] here?
The inhibition at 0.04 % was 100%.

What about the inhibition at 0.1 % (cabbage moth eggs; [9]) of the same compound?
Its inhibition at 0.1 % is 100%.

For C#CCN(C)Cc1cccc(OC)c1 [Compound 8, N-(3-methoxybenzyl)-N-methyl-2-propinylamine], which inhibition at 0.1 % [2, 7] is on record?
The inhibition at 0.1 % was 100%.

Which inhibition at 0.1 % [2, 4] does the source give for C#CCN(C)Cc1ccccc1 [Compound 9, Benzyl-methyl-2-propinyl-ammonium-chloride] here?
The inhibition at 0.1 % was 100%.

With C#CCN(C)Cc1ccccc1Cl [Compound 10, 2-Chlorobenzyl-methyl-2-propinyl-ammonium chloride] as the compound, how does the inhibition at 0.04 % [2, 8] read?
Its inhibition at 0.04 % is 80%.

What about the inhibition at 0.1 % (cabbage moth eggs; [9]) of the same compound?
Its inhibition at 0.1 % is 100%.

For C#CCN(C)Cc1ccc(Cl)cc1Cl [Compound 12, 2,4-Dichlorobenzyl-methyl-2-propinyl-ammonium chloride], which inhibition at 0.1 % [2, 7] is on record?
The inhibition at 0.1 % was 100%.

Which inhibition at 0.04 % [2, 8] does the source give for C#CCN(C)Cc1cccc(OC)c1 [Compound 13, 3-Methoxybenzyl-methyl-2-propinyl-ammonium chloride] here?
The inhibition at 0.04 % was 70%.

With C#CCN(C)Cc1ccc(Cl)c(Cl)c1 [Compound 14, 3,4-Dichlorobenzyl-methyl-2-propinyl-ammonium chloride] as the compound, how does the feed damage ([1]; substance concentration 0.05%) read?
Its feed damage is 0%.

What about the inhibition at 0.08 % (cabbage moth eggs; substance concentration 0.08%, vs untreated eggs, 4 days) of the same compound?
Its inhibition at 0.08 % is 100%.

Which results are given for O=C(CCNNC(=O)c1ccncc1)NCc1ccccc1 [Isonicotinic acid-2-[2-(benzylcarbamoyl)-ethyl]-hydrazide, reference compound]?
inhibition of monoamino-oxidase (monoamino-oxidase): inhibitors of monoamino-oxidase; inhibition at 1 % [2, 5]: 0%; inhibition at 1 % (cabbage moth eggs; [6]): 0%
